This test deals with dissociated DRG neurons. As to the kind of experiment: FluoVolt membrane potential imaging of dissociated DRG neurons. The class given is cell-based, mouse. As to conditions: 1 day NGF followed by adenosine treatment; capsaicin stimulation. The text has this: DRG were isolated from mice using a modified version of the previously described protocol (Perner C, et al. (2021) STAR Protoc. 2:100333). Briefly, mice were euthanized and dosed in 70% ethanol to prevent fur contamination. Mice were positioned prone, and an incision was made along the spine from the neck to the base of the tail. Under a dissecting microscope, the surrounding soft tissue of the spinal column was removed from the dorsal side by Friedman-Pearson Rongeurs (Fine Science Tools, Foster City, CA, Cat #16021-14) from the mid thoracic region to the lumbosacral joint. The vertebral bone surrounding the DRG was gently crushed and removed with rongeurs exposing the spinal cord. The DRG were carefully extracted near the foramen between the vertebral levels. L3 and L4 DRG were collected for analyses. Dissected DRG were placed directly into ice-cold DMEM-F12 medium (ThermoFisher, Cat #11320033) for in vitro culture, Trizol (ThermoFisher, Cat #15596018) for PCR analyses, or 4% PFA for histology. For cell culture experiments, collected DRG were digested in digestion solution comprised of collagenase type II (Worthington, Lakewood, NJ, Cat #LS004176) and dispase (1.5 mg/mL each) dissolved in DMEM/F12. […]
DRG neuron potential changes were evaluated with FluoVolt, a voltage sensitive indicator dye (ThermoFisher, Cat #F10488). […]

This is an account of results in patent US20250152616A1, “COMPOSITIONS FOR AND METHODS OF TREATING, PREVENTING, AND/OR MITIGATING PAIN” (Duke University, priority 2022, published 2025).

Turning to `Nc1ncnc2c1ncn2[C@@H]1O[C@H](CO)[C@@H](O)[C@H]1O` [adenosine], the “NGF-induced increase in membrane potential (FluoVolt)” value was “attenuated”.
